{"source": "paper PMC2375285", "about": "“Inhibition of all-TRANS-retinoic acid metabolism by R116010 induces antitumour activity” (British Journal of Cancer, 2002)", "key": {"CYP2C11": {"molecular_target": "T1, CYP2C11 (Rattus norvegicus, UniProt P08683)", "T1 construct": "hydroxylation of testosterone (CYP2C11, CYP2A1, CYP3A, CYP2B1/2) in rat liver microsomes; from tissue; host or cells: rat liver, microsomes", "T1 sequence (P08683 1-500)": "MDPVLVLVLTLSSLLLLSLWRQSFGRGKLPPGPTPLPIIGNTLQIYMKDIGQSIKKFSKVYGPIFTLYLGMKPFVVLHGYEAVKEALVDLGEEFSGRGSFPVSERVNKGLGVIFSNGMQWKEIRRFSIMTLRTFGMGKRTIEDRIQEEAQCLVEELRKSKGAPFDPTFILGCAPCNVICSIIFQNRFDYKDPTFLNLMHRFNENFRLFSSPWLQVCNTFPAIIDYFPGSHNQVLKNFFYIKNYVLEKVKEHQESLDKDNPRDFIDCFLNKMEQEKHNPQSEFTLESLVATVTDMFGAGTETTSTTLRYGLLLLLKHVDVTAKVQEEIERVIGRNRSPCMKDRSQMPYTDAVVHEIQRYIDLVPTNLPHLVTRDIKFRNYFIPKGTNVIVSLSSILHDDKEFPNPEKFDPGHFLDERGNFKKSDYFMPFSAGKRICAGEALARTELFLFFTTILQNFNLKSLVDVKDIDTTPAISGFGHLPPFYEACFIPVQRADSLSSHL", "experiment": "Testosterone 2α-hydroxylase in rat liver microsomes", "format": "biochemical", "method": "(§1) The conversion of androstenedione to estrone by aromatase (CYP19) in human placental microsomes, the conversion of 17-hydroxy-20-dihydroprogesterone to testosterone by 17,20-lyase (CYP17) in rat testicular S10 fractions, and the 2α-, 7α-, 6β-, and 16β-hydroxylation of testosterone (CYP2C11, CYP2A1, CYP3A, CYP2B1/2) in rat liver microsomes were carried out as described ([Vanden Bossche et al, 1990])."}, "[1]": {"system": "androgen-independent rat prostatic Dunning R3327/PIF-1 carcinoma cells", "set-up": "method as in Van Ginckel et al, 1999", "settings": "in vivo; ref Van Ginckel et al, 1999; cited from earlier work"}, "[2]": {"system": "RA metabolism in intact T47D cells", "experiment": "Microcolumn assay for RA metabolism in intact T47D cells", "format": "cell-based, human", "description": "RA metabolism was quantitatively determined using the microcolumn assay as described previously ([Krekels et al, 1997]). […] Cells were then washed twice with culture medium, harvested and resuspended at 4×10^6 cells ml^−1. An aliquot of this cell suspension (450 μl) was incubated for 90 min in the presence of 0.1 μM [11, 12-^3H(N)]RA, after which 2 ml acetonitrile was added. After centrifugation for 10 min at 780 g, the resulting deproteinized supernatant was acidified with 2.5 ml of 40 mM acetic acid and applied to a 3 ml C18 Bond Elut LRC column (Varian, Harbor City, CA, USA; pretreated with 4 ml distilled water) under a vacuum of 127 mmHg using VAC ELUT SPS-24 and the effluent was collected. The column was eluted with 1 ml 40% acetonitrile and the effluent was collected in the same vial. Radioactivity in the collected effluent, containing the polar metabolites, was determined in a Packard Tri-carb 4530 liquid scintillation analyzer. Optiphase ‘Hi Safe II’ (Wallac, Milton Keynes, UK) was used as a scintillator. Data are presented as mean±s.d. of three or four independent experiments. The IC50-values were calculated by non-linear regression analysis using SigmaPlot 4.01 software."}, "CYP2A1": {"molecular_target": "T2, CYP2A1 (Rattus norvegicus, UniProt P11711)", "T2 construct": "hydroxylation of testosterone (CYP2C11, CYP2A1, CYP3A, CYP2B1/2) in rat liver microsomes; from tissue; host or cells: rat liver, microsomes", "T2 sequence (P11711 1-492)": "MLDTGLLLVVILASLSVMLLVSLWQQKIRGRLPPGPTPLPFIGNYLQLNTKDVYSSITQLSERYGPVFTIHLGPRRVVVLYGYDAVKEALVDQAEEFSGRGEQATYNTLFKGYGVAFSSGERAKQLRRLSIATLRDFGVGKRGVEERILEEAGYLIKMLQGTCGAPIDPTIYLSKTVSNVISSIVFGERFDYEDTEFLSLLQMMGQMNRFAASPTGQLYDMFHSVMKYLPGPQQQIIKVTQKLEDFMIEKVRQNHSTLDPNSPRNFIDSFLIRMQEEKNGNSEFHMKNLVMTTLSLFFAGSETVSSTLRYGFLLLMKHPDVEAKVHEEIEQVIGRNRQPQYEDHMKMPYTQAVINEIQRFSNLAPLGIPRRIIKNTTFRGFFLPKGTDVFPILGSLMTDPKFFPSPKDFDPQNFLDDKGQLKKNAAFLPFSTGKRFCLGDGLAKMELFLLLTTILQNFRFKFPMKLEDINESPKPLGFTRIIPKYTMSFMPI", "experiment": "Testosterone 7α-hydroxylase in rat liver microsomes", "format": "biochemical", "method": "as §1"}, "Lewis lung (3LL) tumours": {"system": "Lewis lung (3LL) tumours", "set-up": "method as in Smets et al, manuscript in preparation", "settings": "in vivo; ref Smets et al, manuscript in preparation; cited from earlier work"}, "T47D cells": {"system": "T47D cells", "experiment": "T47D cell proliferation (MTT assay, 7 days)", "format": "cell-based, human", "settings": "for enhancement of the antiproliferative activity of RA: T47D cells", "description": "T47D cells were seeded in Falcon® 96-well cell culture plates (Life Technologies, Merelbeke, Belgium) at 2500 cells per well in a total volume of 150 μl. Cells were allowed to adhere to plastic for 24 h. Drugs and/or medium were added to a final volume of 200 μl (day 0). Cells were grown under these conditions for 7 days, with renewal of medium and drugs on days 2 and 5. On day 7, medium was renewed and 25 μl MTT-solution was added, and cells were further incubated for 2 h in a cell incubator. The medium was aspirated and 25 μl Sorensen glycine buffer (0.1 M glycine, 0.1 M NaCl; pH 10.5) was added together with 100 μl DMSO to solubilize the blue MTT-formazan product. […] Data are presented as mean±s.d. of three or four independent experiments. Within an experiment, the result of each experimental condition is the mean of six replicate wells. The IC50-values were calculated by non-linear regression analysis using SigmaPlot 4.01 software."}, "TA3-Ha mammary tumours": {"system": "TA3-Ha mammary tumours", "experiment": "TA3-Ha mammary carcinoma model", "method": "Cells (1.5×10^6) were injected intraperitoneally in syngeneic A/J mice. […] Each group consisted of 10 animals for experiments with R116010 and of six animals for experiments with RA. All treatments were performed by oral gavage. […] The control groups were given the vehicle 20% 4-OH-β-cyclodextrine in sterile saline. Mice were daily examined for adverse drug effects. At the end of the experiments, subcutaneous tumours were excised 24 h after the last treatment and weighed to validate the antitumoural effects of the treatment.\nData are represented as box plots showing median group value, 25/75th percentile, 10/90th percentile and outliers. Groups were statistically compared to the vehicle-treated groups using the Mann–Whitney U-test. Significance was defined at the level of P<0.05."}, "[3]": {"experiment": "Blood hormone levels in rats treated with R116010", "format": "in vivo", "settings": "10 mg kg^−1 R116010"}}}
{"smiles": "C[C@@H]([C@H](c1ccc(Nc2nc3ccccc3s2)cc1)n1ccnc1)N(C)C", "note": "[R116010, [S-(R*,R*)]-N-[4-[2-(dimethylamino)-1-(1H-imidazole-1-yl)propyl]-phenyl]-2-benzothiazolamine]", "values": [{"measurement": "IC50", "setting": "CYP2C11; Rat liver microsomes", "result": "> 10", "unit": "µM"}, {"measurement": "inhibition at 10 μM", "setting": "CYP2C11; probe testosterone (2α-hydroxylation), 10 μM R116010, rat liver microsomes, read-out: percentage of inhibition, Testosterone 2α-hydroxylase (CYP2C11)", "result": 28, "unit": "%"}, {"measurement": "growth of orthotopically implanted Dunning R3327/PIF-1 carcinoma cells", "setting": "[1]", "result": "inhibit the growth"}, {"measurement": "IC50", "setting": "[2]; Homo sapiens, intact T47D cells pretreated 16 h with 1 μM RA, 0.1 μM [3H]RA, 90 min, read-out: IC50 inhibition of formation of polar [3H]RA metabolites (RA metabolism)", "result": 8.7, "unit": "nM"}, {"measurement": "fold more potent than liarozole-fumarate as inhibitor of RA metabolism", "setting": "[2]; intact T47D cells", "result": "over 100 fold"}, {"measurement": "IC50", "setting": "CYP2A1; Rat liver microsomes", "result": "> 10", "unit": "µM"}, {"measurement": "inhibition at 10 μM", "setting": "CYP2A1; probe testosterone (7α-hydroxylation), 10 μM R116010, rat liver microsomes, read-out: percentage of inhibition, Testosterone 7α-hydroxylase (CYP2A1)", "result": 12, "unit": "%"}, {"measurement": "growth of subcutaneous mouse Lewis lung (3LL) tumours", "setting": "Lewis lung (3LL) tumours", "result": "inhibit the growth"}, {"measurement": "enhancement of the antiproliferative activity of RA", "setting": "T47D cells; 0.01 μM R116010", "result": 1.25, "unit": "fold"}, {"measurement": "enhancement of the antiproliferative activity of RA", "setting": "T47D cells; 0.1 μM R116010", "result": 2.6, "unit": "fold"}, {"measurement": "enhancement of the antiproliferative activity of RA", "setting": "T47D cells; 1 μM R116010", "result": "three-fold"}, {"measurement": "effect on T47D cell proliferation by itself", "setting": "T47D cells; compound alone, 7 days, MTT", "result": "no effect"}, {"measurement": "body weight decrease", "setting": "TA3-Ha mammary tumours; R116010 5 mg kg^−1, mice", "result": "~15", "unit": "%"}, {"measurement": "toxicity findings", "setting": "TA3-Ha mammary tumours; at toxic dose: RA 5, R116010 5, liarozole fumarate 20 mg kg^−1", "result": "hair loss and bone fractures"}, {"measurement": "therapeutic window", "setting": "TA3-Ha mammary tumours; maximum tolerated dose versus lowest active dose, TA3-Ha model", "result": 30, "unit": "fold"}, {"measurement": "dose at which toxicity was observed", "setting": "TA3-Ha mammary tumours; mice, oral, twice daily, toxicity related to hypervitaminosis A", "result": 5, "unit": "mg/kg"}, {"measurement": "fold more potent than liarozole-fumarate in TA3-Ha model", "setting": "TA3-Ha mammary tumours; oral, twice daily", "result": "approximately 60 fold"}, {"measurement": "lowest active dose inhibiting TA3-Ha tumour growth", "setting": "TA3-Ha mammary tumours; oral, twice daily, day 1 until day 21, tumour weight", "result": 0.16, "unit": "mg/kg"}, {"measurement": "change in blood hormone levels", "setting": "[3]", "result": "no change"}]}
